Assay results reported in PMC6895180 (Nature Communications, 2019).
Where “and” joins values, the source holds several entries; their conditions need not be identical. Identical values can stand only once. Like-named read-outs stand apart in the source and are kept apart here.

How the values were obtained:
[1] = system: T. b. brucei Squib 427; assay: Mouse model of acute HAT
Method: Drinking water and food were available ad libitum throughout the experiment. […] The reference drug suramin was formulated in phospahte-buffered saline (PBS) at 2.5 mg mL^−1 and administered s.i.d. i.p. for 5 days at 10 mg kg^−1 (n = 3). All treatments were initiated 30 min prior to the i.p. infection. […] Parasitaemia was determined by microscopic evaluation of tail vein blood samples at 4, 7, 10, 14 and 21 dpi (pre-set endpoint). As a test of cure, blood samples (250 µL) were collected from treated mice at 21 dpi and were sub-inoculated i.p. in naive Swiss mice (n = 3), followed by monitoring of parasitaemia as follow-up.

[2] = system: T. brucei NY-SM cells; assay: Susceptibility assay, NY-SM cells; format: cell-based, Trypanosoma brucei brucei
Method: (§1) Susceptibility assays with NY-SM[51], BS221[48] and TbAT1-KO[48] (derived from BS221) cells were performed using 10 concentrations of a 4-fold compound dilution series starting at 64 µM. Parasites were seeded at 4 × 10^3 parasites per well and exposed to drug compound for 72 h, after which resazurin (final concentration of 10 µg mL^−1) was added to the plates. Fluorescence intensities were determined after 6 h.

[3] = system: bloodstream form T. brucei 427WT; assay: Wash-out experiments with T. brucei; format: cell-based, Trypanosoma brucei
Method: Wash-out experiments with T. brucei
A culture of bloodstream form T. brucei 427WT, at mid-log phase of growth, was harvested and resuspended at a density of 10^5 cells mL-1, in fresh medium containing either no test compound, or […]
The cultures were incubated under standard conditions (37 °C/5% CO2) and cell counts were performed manually using a haemocytometer under phase contrast microscopy, every 24 h. The culture in continuous presence of analogue 9 was split in two at 8 h and 48 h (as indicated with arrows in Supplementary Figure S2). The split cultures were centrifuged and resuspended in the same volume of either fresh medium without test compound or fresh medium with the same concentration of compound 9 as before, reincubated. The detection limit for the manual cell count was 10^4 cells mL-1. […]

[4] = system: RNAi clones targeting adenosine kinase (ADKIN; Tb927.6.2300) in T. brucei NY-SM cells; assay: Susceptibility of ADKIN RNAi clones (tetracycline-induced / non-induced); format: cell-based, Trypanosoma brucei brucei; conditions: for IC50: single determinations
Method: as §1
The RNAi library[54] was induced for 68 h by the addition of 1 µg mL^−1 of tetracycline. After induction, the cells were exposed to different concentrations of 9 (corresponding to the IC98, IC99). Cells were maintained until a recovery of the resistant population was observed. Genomic DNA of the resistant parasite population was isolated, and the RNAi inserts were identified by PCR amplification, followed by cloning in highly competent Escherichia coli and sequencing. To validate the involvement of the identified genes, the RNAi inserts were back-cloned into a p2T7Bern vector[54] and transformed into NY-SM cells (the background strain of the RNAi library). The transformed NY-SM cells were cloned by limiting dilution. Two clones of each RNAi insert were exposed to tetracycline to induce the RNAi phenotype and subsequently subjected to different concentrations of 9 to determine the susceptibility of induced versus non-induced clones.
Drug susceptibility assays with induced clones were performed as described above for NY-SM cells, with an initial induction period of 68 h with 1 µg mL^−1 tetracycline prior to the start of the drug susceptibility assay.

SMILES: Nc1ncnc2c1ccn2[C@@H]1O[C@H](CO)C[C@H]1O [Compound 9, 3’-deoxytubercidin]
- parasitaemia, individual mice ([1]; 6.25 mg/kg bid PO, 4 dpi): 0
- parasitaemia, individual mice ([1]; 6.25 mg/kg bid PO, 7 dpi): 0
- parasitaemia, individual mice ([1]; 6.25 mg/kg bid PO, 10 dpi): 0
- parasitaemia, individual mice ([1]; 6.25 mg/kg bid PO, 14 dpi): 0
- parasitaemia, individual mice ([1]; 6.25 mg/kg bid PO, 21 dpi): 0
- parasitaemia, individual mice ([1]; 12.5 mg/kg bid PO, 4 dpi): 0
- parasitaemia, individual mice ([1]; 12.5 mg/kg bid PO, 7 dpi): 0
- parasitaemia, individual mice ([1]; 12.5 mg/kg bid PO, 10 dpi): 0
- parasitaemia, individual mice ([1]; 12.5 mg/kg bid PO, 14 dpi): 0
- parasitaemia, individual mice ([1]; 12.5 mg/kg bid PO, 21 dpi): 0
- parasitaemia, individual mice ([1]; 25 mg/kg bid PO, 4 dpi): 0
- parasitaemia, individual mice ([1]; 25 mg/kg bid PO, 7 dpi): 0
- parasitaemia, individual mice ([1]; 25 mg/kg bid PO, 10 dpi): 0
- parasitaemia, individual mice ([1]; 25 mg/kg bid PO, 14 dpi): 0
- parasitaemia, individual mice ([1]; 25 mg/kg bid PO, 21 dpi): 0
- tolerability in mice ([1]; all treatment schedules, no adverse reactions, no weight loss): well tolerated
- test of cure: blood of surviving animals at 21 dpi inoculated in treatment-naïve mice ([1]; follow-up of parasitaemia): absence of parasitaemia
- blood parasitaemia and survival at 21 dpi ([1]; i.p. 10 mg kg^−1 s.i.d. for 5 days): negative blood parasitaemia and survival of all treated mice
- blood parasitaemia and survival at 21 dpi ([1]; oral 6.25 mg kg^−1 b.i.d. for 5 days): negative blood parasitaemia and survival of all treated mice
- blood parasitaemia and survival at 21 dpi ([1]; oral 12.5 mg kg^−1 b.i.d. for 5 days): negative blood parasitaemia and survival of all treated mice
- blood parasitaemia and survival at 21 dpi ([1]; oral 25 mg kg^−1 b.i.d. for 5 days): negative blood parasitaemia and survival of all treated mice
- IC50 ([2]; NYsm parental cells, single replicates, read-out: IC50): 7.98 nM and 7.87 nM
- Inhibition (%) ([2]; NYsm, 0.000244141 µM): 0% and 3.5% and 5.32% and 2.3%
- Inhibition (%) ([2]; NYsm, 0.000976563 µM): 5.56% and 15% and 14% and 7%
- Inhibition (%) ([2]; NYsm, 0.00390625 µM): 52% and 44%
- Inhibition (%) ([2]; NYsm, 0.015625 µM): 98%
- Inhibition (%) ([2]; NYsm, 1 µM): 98%
- IC50 ([2]; Trypanosoma brucei, NYsm parental cells, single replicates, read-out: IC50): 7.92 nM
- inhibition at 0.00390625 µM ([2]; Trypanosoma brucei, NYsm, 0.00390625 µM): 53%
- inhibition at 0.015625 µM ([2]; Trypanosoma brucei, NYsm, 0.015625 µM): 99%
- inhibition at 0.0625 µM ([2]; Trypanosoma brucei, NYsm, 0.0625 µM): 99%
- inhibition at 0.25 µM ([2]; Trypanosoma brucei, NYsm, 0.25 µM): 100%
- inhibition at 1 µM ([2]; Trypanosoma brucei, NYsm, 1 µM): 100%
- inhibition at 4 µM ([2]; Trypanosoma brucei, NYsm, 4 µM): 100%
- inhibition at 16 µM ([2]; Trypanosoma brucei, NYsm, 16 µM): 100%
- inhibition at 64 µM ([2]; Trypanosoma brucei, NYsm, 64 µM): 100%
- IC50 ([2]; Trypanosoma brucei, single determinations, read-out: IC50, NYsm): 5.2 nM
- IC50 ([2]; single determinations, read-out: IC50, NYsm): 5.9 nM and 6.6 nM and 3.6 nM and 4.6 nM and 3.7 nM and 6.4 nM
- parasites recovered after wash-out ([3]; 0.500 µM, 48 h of exposure and subsequent removal, up to 120 h): no parasites were recovered
- Manual cell count ([3]; Exp. 1, 0.165 µM, 8 h wash, 8 h): 60000 cells mL-1
- Manual cell count ([3]; Exp. 1, 0.165 µM, 8 h wash, 24 h): 10000 cells mL-1
- Manual cell count ([3]; Exp. 1, 0.165 µM, 8 h wash, 48 h): 40000 cells mL-1
- Manual cell count ([3]; Exp. 1, 0.165 µM, 8 h wash, 72 h): 600000 cells mL-1
- Manual cell count ([3]; Exp. 1, 0.165 µM, 8 h wash, 96 h): 3800000 cells mL-1
- Manual cell count ([3]; Exp. 1, 0.165 µM, 8 h wash, 120 h): 1300000 cells mL-1
- Manual cell count ([3]; Exp. 1, 0.165 µM, 48 h wash, 72 h): 20000 cells mL-1
- Manual cell count ([3]; Exp. 1, 0.165 µM, 48 h wash, 96 h): 40000 cells mL-1
- Manual cell count ([3]; Exp. 1, 0.165 µM, 48 h wash, 120 h): 280000 cells mL-1
- Manual cell count ([3]; Exp. 1, 0.165 µM, Continuous, 8 h): 120000 cells mL-1
- Manual cell count ([3]; Exp. 1, 0.165 µM, Continuous, 96 h): 10000 cells mL-1
- Manual cell count ([3]; Exp. 1, 0.165 µM, Continuous, 120 h): 30000 cells mL-1
- Manual cell count ([3]; Exp. 2, 0.500 µM, 8 h wash, 8 h): 55000 cells mL-1
- Manual cell count ([3]; Exp. 2, 0.500 µM, 8 h wash, 24 h): 10000 cells mL-1
- Manual cell count ([3]; Exp. 2, 0.500 µM, 8 h wash, 48 h): 10000 cells mL-1
- Manual cell count ([3]; Exp. 2, 0.500 µM, 8 h wash, 72 h): 10000 cells mL-1
- Manual cell count ([3]; Exp. 2, 0.500 µM, 8 h wash, 96 h): 30000 cells mL-1
- Manual cell count ([3]; Exp. 2, 0.500 µM, 8 h wash, 120 h): 430000 cells mL-1
- Manual cell count ([3]; Exp. 2, 0.500 µM, Continuous, 8 h): 110000 cells mL-1
- fold reduced susceptibility in ADKIN knockdown cell lines [4]: ~ 20 fold
- Inhibition (%) ([4]; ADKIN A +, 0.000976563 µM): 2.55%
- Inhibition (%) ([4]; ADKIN A +, 0.00390625 µM): 2.6%
- Inhibition (%) ([4]; ADKIN A +, 0.0625 µM): 42% and 36% and 30%
- Inhibition (%) ([4]; ADKIN A +, 0.25 µM): 91% and 95%
- Inhibition (%) ([4]; ADKIN B +, 0.25 µM): 93% and 91% and 98%
- inhibition at 0.0625 µM ([4]; Trypanosoma brucei, ADKIN A +, 0.0625 µM): 33%
- inhibition at 0.25 µM ([4]; Trypanosoma brucei, ADKIN A +, 0.25 µM): 94%
- inhibition at 1 µM ([4]; Trypanosoma brucei, ADKIN A +): 99%
- inhibition at 4 µM ([4]; Trypanosoma brucei, ADKIN A +): 99%
- inhibition at 16 µM ([4]; Trypanosoma brucei, ADKIN A +): 100%
- inhibition at 64 µM ([4]; Trypanosoma brucei, ADKIN A +): 99%
- inhibition at 0.000244141 µM ([4]; Trypanosoma brucei, ADKIN B +, 0.000244141 µM): 0%
- inhibition at 0.000976563 µM ([4]; Trypanosoma brucei, ADKIN B +, 0.000976563 µM): 0%
- inhibition at 0.00390625 µM ([4]; Trypanosoma brucei, ADKIN B +, 0.00390625 µM): 0%
- inhibition at 0.015625 µM ([4]; Trypanosoma brucei, ADKIN B +, 0.015625 µM): 0%
- inhibition at 0.25 µM ([4]; Trypanosoma brucei, ADKIN B +, 0.25 µM): 96%
- inhibition at 1 µM ([4]; Trypanosoma brucei, ADKIN B +): 99%
- inhibition at 4 µM ([4]; Trypanosoma brucei, ADKIN B +): 99%
- inhibition at 16 µM ([4]; Trypanosoma brucei, ADKIN B +): 100%
- inhibition at 64 µM ([4]; Trypanosoma brucei, ADKIN B +): 100%
- EC50 ([4]; Trypanosoma brucei, read-out: EC50, ADKIN RNAi clones before knockdown): 7.7 ± 0.17 nM
- EC50 ([4]; Trypanosoma brucei, read-out: EC50 upon ADKIN knockdown): 100 ± 5 nM
- IC50 ([4]; Trypanosoma brucei, read-out: IC50, ADKIN A +, clone A, tetracycline-induced): 101 nM
- IC50 ([4]; Trypanosoma brucei, read-out: IC50, ADKIN A -, clone A, non-induced): 6.9 nM
- IC50 ([4]; Trypanosoma brucei, read-out: IC50, ADKIN B +, clone B, tetracycline-induced): 98.5 nM
- IC50 ([4]; read-out: IC50, ADKIN A +, clone A, tetracycline-induced): 117 nM and 123 nM and 92 nM and 78.4 nM and 88.9 nM and 95.7 nM and 111 nM
- IC50 ([4]; read-out: IC50, ADKIN A -, clone A, non-induced): 7.7 nM and 7.2 nM and 8.1 nM and 7.9 nM and 8.3 nM and 7.8 nM and 7.4 nM
- IC50 ([4]; read-out: IC50, ADKIN B +, clone B, tetracycline-induced): 110 nM and 121 nM and 120 nM (2×) and 109 nM and 132 nM and 127 nM

SMILES: Nc1ncnc2c1c(Br)cn2[C@@H]1O[C@H](CO)C[C@H]1O [Compound 10, 3’-deoxy-7-Br-tubercidin]
- tolerability in mice ([1]; 6.25 mg kg^−1 orally): not well tolerated
